Data published in US6514997B2, “Antipicornaviral compounds and compositions, their pharmaceutical uses, and materials for their synthesis” (Agouron Pharmaceuticals, Inc., priority 1999, dated 2003).
Read-outs that look alike come from different tables or passages of the source.

What was measured:
HRV-14 = assay: Antirhinoviral H1-HeLa cell culture assay (XTT cell protection, EC50), HRV-14; assay type: cell-based, human rhinovirus (HRV) serotype-14 in H1-HeLa cells
Method: (§1) Antirhinoviral H1-HeLa Cell Culture Assay:
(§2) In this cell protection assay, the ability of compounds to protect cells against HRV infection was measured by the XTT dye reduction method, which is described in Weislow et al., J. Natl. Cancer Inst. […] H1-HeLa cells were infected with HRV-14 at a multiplicity of infection (m.o.i.) of 0.13 (virus particles/cell) or mock-infected with medium only. Infected or mock-infected cells were resuspended at 8×10^5 cells per mL, and incubated with appropriate concentrations of the compounds to be tested. Two days later, XTT/PMS was added to test plates and the amount of formazan produced was quantified spectrophotometrically at 450/650 nm. […] The therapeutic index (TI) was calculated by dividing the CC50 value by the EC50 value.
(§3) All strains of human rhinovirus (HRV) for use in this assay were purchased from American Type Culture Collection (ATCC), except for HRV serotype-14 (produced from the infectious cDNA clone constructed by Dr. Robert Rueckert, Institute for Molecular Virology, University of Wisconsin, Madison, Wis.). HRV stocks were propagated and viral assays were performed in H1-HeLa cells (ATCC). Cells were grown in minimal essential medium with 10% fetal bovine serum, available from Life Technologies (Gaithersburg, Md.).

[1] = biological target: T1, Recombinant rhinovirus 3C protease, serotype 14 (Human rhinovirus 14, UniProt P03303); assay: Inhibition of rhinovirus 3C protease (FRET assay, kobs/[I]), serotype 14; assay type: biochemical; conditions: HRV-14; for kinact/KI: pH 7.6, read-out: kobs/[I] (3C protease inhibition activity)
T1 construct: Recombinant rhinovirus 3C proteases; made in house
T1 sequence (P03303 1538-1719): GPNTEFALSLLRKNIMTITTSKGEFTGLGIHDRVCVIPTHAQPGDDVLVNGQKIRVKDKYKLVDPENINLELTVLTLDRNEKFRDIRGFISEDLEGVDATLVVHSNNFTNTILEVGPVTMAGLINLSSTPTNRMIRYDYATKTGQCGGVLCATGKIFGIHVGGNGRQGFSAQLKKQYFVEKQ
Method: Inhibition of Rhinovirus 3C Protease:
Stock solutions (50 mM, in DMSO) of various compounds were prepared; dilutions were in the same solvent. Recombinant rhinovirus 3C proteases (see Birch et al., “Purification of recombinant human rhinovirus 14 3C protease expressed in Escherichia coli,” Protein Expr. Pur. (1995), vol. 6(5), 609-618) from serotypes 14, 16, and 2 were prepared by the following standard chromatographic procedures: (1) ion exchange using Q Sepharose Fast Flow from Pharmacia; (2) affinity chromatography using Affi-Gel Blue from Biorad; and (3) sizing using Sephadex G-100 from Pharmacia. Each assay sample contained 2% DMSO, 50 mM tris pH 7.6, 1 mM EDTA, a test compound at the indicated concentration, approximately 1 μM substrate, and 50-100 nM protease. The kobs/I values were obtained from reactions initiated by addition of enzyme rather than substrate. RVP activity was measured in the fluorescence resonance energy transfer assay. The substrate was (N-terminal) DABCYL-([…]-EDANS. In the uncleaved peptide, the EDANS fluorescence was quenched by the proximal DABCYL moiety. When the peptide was cleaved, the quenching was relieved, and activity was measured as an increase in fluorescence signal. The tabulated data in the column designated kobs/[I] were measured from progress curves in enzyme start experiments.

[2] = tested on: strains of human rhinovirus (HRV); assay: Antirhinoviral H1-HeLa cell culture assay (XTT cell protection, EC50), other HRV strains; assay type: cell-based, human rhinovirus in H1-HeLa cells; conditions: read-out: EC50
Method: as §1
In this cell protection assay, the ability of compounds to protect cells against HRV infection was measured by the XTT dye reduction method, which is described in Weislow et al., J. Natl. Cancer Inst. (1989), vol. 81, 577-586. H1-HeLa cells were infected with HRV-14 at a multiplicity of infection (m.o.i.) of 0.13 (virus particles/cell) or mock-infected with medium only. Infected or mock-infected cells were resuspended at 8×10^5 cells per mL, and incubated with appropriate concentrations of the compounds to be tested. Two days later, XTT/PMS was added to test plates and the amount of formazan produced was quantified spectrophotometrically at 450/650 nm. […] The therapeutic index (TI) was calculated by dividing the CC50 value by the EC50 value.
as §3

H1-HeLa cells = assay: Cytotoxicity (CC50) in mock-infected H1-HeLa cells, XTT dye reduction; assay type: cell-based, human
Method: as §2, §3
(§4) Coxsackievirus types A-21 (CAV-21) and B3 (CVB3) were purchased from American Type Culture Collection (ATCC, Rockville, Md.). Virus stocks were propagated and antiviral assays were performed in H1-HeLa cells (ATCC). Cells were grown in minimal essential medium with 10% fetal bovine serum (Life Technologies, Gaithersburg, Md.). The ability of the compounds of this invention to protect cells against either CAV-21 or CVB3 infection was measured by the XTT dye reduction method. This method is described in Weislow et al., J. Natl. Cancer Inst. […] H1-HeLa cells were infected with CAV-21 or CVB3 at a multiplicity of infection (m.o.i.) of 0.025 or 0.075, respectively, or mock-infected with medium only. H1-HeLa cells were plated at 4×10^4 cells per well in a 96-well plate and incubated with appropriate concentrations of the test compound. One day (CVB3) or two days (CAV-21) later, XTT/PMS was added to test plates and the amount of formazan produced was quantified spectrophotometrically at 450/650 nm. […] The therapeutic index (TI) was calculated by dividing the CC50 by the EC50.

[3] = as above; assay type: cell-based, human; conditions: human, H1-HeLa cells, mock-infected; line of HRV-14
Method: as §2, §3, §4

[4] = Rhinovirus B, HRV14, H1-HeLa, HRV-14, read-out: EC50

Structure (SMILES) | kinact/KI [1] [M⁻¹ s⁻¹] | CC50 at 2 days [3] [µM] | EC50 (HRV-14; [4]) [µM] | further results
Cc1cc(C(=O)Nc2cccn(C(Cc3ccc(F)c(F)c3)C(=O)N[C@H](/C=C/C(=O)OCC(C)(C)C)C[C@@H]3CCNC3=O)c2=O)no1 (relative stereo) [Compound 47, trans-(2′S,3″″″S,4S)-4-[3′-(3″,4″-Difluorophenyl)-2′-(3′″-{[1″″-(5′″″-methylisoxazol-3′″″-yl)methanoyl]amino}-2″″-oxo-2″″H-pyridin-1″″-yl)propanoylamino]-5-(2″″″-oxopyrrolidin-3″″″-yl)pent-2-enoic Acid 2,2-Dimethylpropyl Ester] |  |  |  | EC50 (HRV-14; HRV-14, read-out: EC50): 0.04 µM; kobs/[I] (3C protease inhibition activity) [1]: 1,400,000 M^−1s^−1; EC50 ([2]; HRV-1A): 0.148 µM; EC50 ([2]; HRV-2): 0.133 µM; EC50 ([2]; HRV-3): 0.018 µM; EC50 ([2]; HRV-9): 0.121 µM; EC50 ([2]; HRV-10): 0.114 µM; EC50 ([2]; HRV-16): 0.049 µM; EC50 ([2]; HRV-25): 0.193 µM; EC50 ([2]; HRV-39): 0.168 µM; CC50 (H1-HeLa cells; line of HRV-1A): > 10 µM; CC50 (H1-HeLa cells; line of HRV-2): > 10 µM; CC50 (H1-HeLa cells; line of HRV-3): > 10 µM; CC50 (H1-HeLa cells; line of HRV-9): > 10 µM; CC50 (H1-HeLa cells; line of HRV-10): > 10 µM; CC50 (H1-HeLa cells; line of HRV-14): > 10 µM; CC50 (H1-HeLa cells; line of HRV-16): > 10 µM; CC50 (H1-HeLa cells; line of HRV-25): > 10 µM; CC50 (H1-HeLa cells; line of HRV-39): > 10 µM
CCOC(=O)/C=C/[C@H](C[C@@H]1CCNC1=O)NC(=O)[C@H](Cc1ccccc1)n1ccc2cc[nH]c2c1=O [Compound 3] | 2900 | > 10 |  | EC50 (HRV-14; Rhinovirus B, HRV14, H1-HeLa): 1.27 µM
CCOC(=O)/C=C/[C@H](CCC(N)=O)NC(=O)[C@H](Cc1ccc(F)cc1)n1cccc(NC(=O)OCc2ccccc2)c1=O [Compound 7, trans-(2′S,4S)-4-[2′-(3″-Benzyloxycarbonylamino-2″-oxo-2″H-pyridin-1″-yl)-3′-(4′″-fluorophenyl)propionylamino]-6-carbamoylhex-2-enoic Acid Ethyl Ester] | 81000 | > 10 | 0.014 | 
CCOC(=O)/C=C/[C@H](CCC(N)=O)NC(=O)[C@H](Cc1ccccc1)n1cccc(NC(C)=O)c1=O [Compound 8, trans-(2′S,4S)-4-[2′-(3″-Acetylamino-2″-oxo-2″H-pyridin-1″-yl)-3′-phenypropionylamino]-6-carbamoylhex-2-enoic Acid Ethyl Ester] | 7660 | > 10 | 0.888 | 
CCOC(=O)/C=C/[C@H](CCC(N)=O)NC(=O)[C@H](Cc1ccccc1)n1cccc(NC(=O)C(C)(C)C)c1=O [Compound 9, trans-(2′S,4S)-6-Carbamoyl-4-{2′-[3″-(2′″,2′″-dimethylpropionylamino)-2″-oxo-2″H-pyridin-1″-yl]-3′-phenylpropionylamino}hex-2-enoic Acid Ethyl Ester] | 5040 | > 10 | 0.518 | 
CCOC(=O)/C=C/[C@H](CCC(N)=O)NC(=O)[C@H](Cc1ccc(F)c(F)c1)n1cccc(NC(=O)OCc2ccccc2)c1=O [Compound 11, trans-(2′S,4S)-4-[2′-(3″-Benzyloxycarbonylamino-2″-oxo-2″H-pyridin-1″-yl)-3′-(3′″,4′″-difluorophenyl)propionylamino]-6-carbamoylhex-2-enoic Acid Ethyl Ester] | 193000 | > 10 | < 0.0032 | 
CCOC(=O)/C=C/[C@H](CCC(N)=O)NC(=O)[C@H](Cc1ccccc1)n1ccc(C)c(NC(=O)OCc2ccccc2)c1=O [Compound 12, trans-(2′S,4S)-4-[2′-(3″-Benzyloxycarbonylamino-4″-methyl-2″-oxo-2″H-pyridin-1″-yl)-3′-phenylpropionylamino]-6-carbamoylhex-2-enoic Acid Ethyl Ester] | 25800 | > 10 | 0.075 | 
CCOC(=O)/C=C/[C@H](CCC(N)=O)NC(=O)[C@H](CC1CCCCC1)n1cccc(NC(=O)OCc2ccccc2)c1=O [Compound 15, trans-(2′S,4S)-4-[2′-(3″-Benzyloxycarbonylamino-2″-oxo-2″H-pyridin-1″-yl)-3′-cyclohexylpropionylamino]-6-carbamoyl-hex-2-enoic Acid Ethyl Ester] | 6500 | > 10 | 0.178 | 
O=C1OCC/C1=C\[C@H](C[C@@H]1CCNC1=O)NC(=O)[C@H](Cc1ccc(F)cc1)n1cccc(NC(=O)C2CCCC2)c1=O [Compound 16, trans-(2′″S,2′″S,3′″″S)-Cyclopentanecarboxylic acid(1-{2′-(4″-fluorophenyl)-1′-[2′-(2″″-oxo-dihydrofuran-3″″-ylidene)-1-(2′″″-oxopyrrolidin-3′″″-ylmethyl)ethylcarbamoyl]ethyl}-2-oxo-1,2-dihydropyridin-3-yl)amide] | 74000 | > 10 | 0.325 | 
CCOC(=O)/C=C/[C@H](CCC(N)=O)NC(=O)Cn1cccc(NC(=O)OCc2ccccc2)c1=O [Compound 17, trans-(4S)-4-[2′-(3″-Benzyloxycarbonylamino-2″-oxo-2″H-pyridin-1″-yl)acetylamino]-6-carbamoylhex-2-enoic Acid Ethyl Ester] | 348 | > 10 | > 10 | 
CCOC(=O)/C=C/[C@H](CCC(N)=O)NC(=O)[C@H](Cc1ccccc1)n1ccc(C)c(NC(=O)c2cc(C)on2)c1=O [Compound 18, trans-(2′S,4S)-6-Carbamoyl-4-(2′-{4″-methyl-3″-[(5′″-methylisoxazole-3′″-carbonyl)amino]-2″-oxo-2″H-pyridin-1″-yl}-3′-phenylpropionylamino)hex-2-enoic Acid Ethyl Ester] | 116000 | > 10 | 0.125 | 
CCOC(=O)/C=C/[C@H](C[C@@H]1CCNC1=O)NC(=O)[C@H](Cc1ccccc1)n1cccc(NC(=O)OCc2ccccc2)c1=O [Compound 19, trans-(2′S,3′″S,4S)-4-[2′-(3″-Benzyloxy-carbonylamino-2″-oxo-2″H-pyridin-1″-yl)-3′-phenylpropionylamino]-5-(2′″-oxopyrrolidin-3′″-yl)pent-2-enoic Acid Ethyl Ester] | 380000 | > 10 |  | EC50 (HRV-14; Rhinovirus B, HRV14, H1-HeLa): 0.003 µM
Cc1cc(C(=O)Nc2cccn([C@@H](Cc3ccc(F)cc3)C(=O)N[C@H](/C=C3\CCOC3=O)C[C@@H]3CCNC3=O)c2=O)no1 [Compound 20, trans-(2″S,2″″S,3″″″S)-5-Methylisoxazole-3-carboxylic Acid (1′-{2″-(4′″-fluorophenyl)-1″-[2″″-(2′″″-oxodihydrofuran-3′″″-ylidene)-1″″-(2″″″oxopyrrolidin-3″″″-ylmethyl)ethylcarbamoyl]ethyl}-2′-oxo-1′,2′-dihydropyridin-3′-yl)amide] | 600000 | > 10 | 0.015 | 
